# Source: patent US8889397B2, “Nucleotides for prevention and treatment of bacterial and fungal pathologies” (priority 2003, dated 2014)
# B1: 5′-CTTTCAACAGTTTTGATGACCTTTGCTGACCATACAATTGCGATATCGTGGGGAGTGAGAG-3′ (nucleic acid)
# DNA: CTTTCAACAGTTTTGATGACCTTTGCTGACCATACAATTGCGATATCGTGGGGAGTGAGAG
# modifications: expressed or natural sequence
# notes: ODN insert of the positive clone from ssDNA expression library screening
# Columns and labels:
# [1] = tested on: SM101; experiment: inhibition of bacterial growth by ODN (OD600 or viable cell count); format: cell-based, E. coli; conditions: ODN 40 μM or 400 μM, 30° C., 2, 4 or 6 h
# Experimental: Immediately after diluting the O/N cultures 1/50, ODN was added to final concentrations of 4 uM, 40 μM or 400 μM with equal volume water as a negative control, and incubated with shaking at 30° C. After 2, 4 or 6 h, the growth was measured by viable cell count, which was done by diluting the cultures and plating on LB plates with streptomycin.
# The inhibition of bacterial growth by ODN was evaluated by examining the effect of ODN dosage on SM101 growth. In this study, an ODN having the sequence CTC ATA CTC T was added to the 1/50 diluted O/N SM101 cell cultures, at final concentration of 40 μM or […] with addition of equal volume water as a negative control, and incubated with shaking at 30° C. After 2, 4 or 6 h, the growth was measured by either the optical density at 600 nm (OD600) or viable cell count, which was done by diluting the cultures and plating them in triplicate on LB plates with streptomycin.
# [2] = tested on: FtsZ RNA; experiment: in vitro cleavage of FtsZ RNA by DNA enzyme in a cell-free system; format: biochemical; conditions: 37° C., 100 nM template FtsZ RNA, 100 μM DNA enzyme, 10 mM MgCl2, pH 7.5; products 368 nt and 857 nt
# Experimental: Lane 1 is a control reaction incubated for 2 hrs in the absence of DNA enzyme. S: substrate; P1 (857 nt) and P2 (368 nt): DNA enzyme digestion products.
# The ability of the pssXGb(FtsZ-DZ) expression vector of the present invention to produce DNA enzyme molecules in bacterial cells was tested by evaluating the cleavage activity of the designed DNA enzyme in a cell-free system. The 1225 nt FtsZ RNA, produced by in vitro transcription, is used as a substrate and the cleavage assay is carried out at 37° C. for various period of time as indicated in a 10 μl reaction containing 10 mM MgCl2, 50 mM Tris-HCl, pH 7.5, 100 nM template FtsZ RNA, 100 μM DNA enzyme, and 10 units RNasin.
# [3] = tested on: K12; experiment: inhibition of bacterial growth by peptide-ODN conjugate (viable cell count); format: cell-based, E. coli; conditions: conjugate 4 μM, 40 μM or 400 μM, 37° C., 2 hours
# Experimental: The inhibition of bacterial growth by peptide-[…] conjugate was evaluated by examining the effect of conjugate dose on the ability of conjugate to inhibit K12 growth. In this study, a peptide-ODN conjugate having the sequence
# was added to the 1/50 diluted O/N K12 cell cultures, and final concentration of 4 μM, 40 μM, or 400 μM, with addition of equal volume water as a negative control, and incubated with shaking at 37° C. Immediately after, diluting the O/N culture 1/50, peptide-ODN conjugate was added to final concentration of 4 μM, 40 μM, or […], with addition of equal volume water as a negative control, and incubated with shaking at 37° C. After 2 hours, growth was measured by viable cell count by diluting the cultures and plating in triplicate on LB plates. […] Reduction of Mouse Bacterial Load in Blood by Peptide-ODN Conjugate.
# [4] = tested on: DH5αPro; experiment: conditionally lethal effect of ODN expression plasmid in DH5αPro on LB media with or without aTc; format: cell-based; conditions: DH5αPro carrying the plasmid; with or without 200 ng/ml aTc
# Experimental: Colonies were grown in duplicate in LB plates with or without aTc. Positive clone (containing the pssXGb vector including the sequence CYGX080103) is marked by an arrow.
# The CYGX080103 plasmid and the plasmid without ODN insert as negative control were transformed into DH5αPro and plated onto LB media with or without 200 ng/ml aTc. […] DH5αPro carrying plasmid without the ODN insert grows on both media (FIG. 10B).
# Since the ssDNA expression library was constructed based on a tetracycline inducible vector, bacterial cells containing the ssDNA expression library were plated in duplicate in Luria broth (LB) plates in the presence or absence 200 ng/ml aTc. […] Plasmid DNA was extracted from the positive colony from the library screening, and the insert sequences determined by 3′ end single-pass sequencing. The insert generated by this set of experiments was named CYGX080103, with sequence of:
# The antibacterial efficacy of the ODN CYGX080103 was further evaluated in two separate experiments. The first was designed to examine the conditionally lethal effect of the ODN expression plasmid in the host cell DH5αPro, the bacterial strain employed in the library screening. The second experiment was designed to study the effect of the ODN expression plasmid on other bacterial strains. […]
# [5] = tested on: E. coli XL10-gold(kan); experiment: growth of XL10-gold(kan) transformed with ODN expression plasmid; format: cell-based; conditions: XL10-gold(kan) transformants; LB with chloramphenicol, 37° C. O/N
# Experimental: The transformants were plated on LB media with chloramphenicol and incubated at 37° C.
# The antibacterial efficacy of the ODN CYGX080103 was further evaluated in two separate experiments. The first was designed to examine the conditionally lethal effect of the ODN expression plasmid in the host cell DH5αPro, the bacterial strain employed in the library screening. The second experiment was designed to study the effect of the ODN expression plasmid on other bacterial strains. In the first study, the ODN expression plasmid and the plasmid without ODN insert as negative control were transformed into DH5αPro and plated onto LB media with or without 200 ng/ml aTc. […] DH5αPro cells carrying the plasmid without the ODN insert grow on both media (FIG. 10B). In the second study, the ODN expression plasmid and the plasmid without ODN insert were transformed into E. coli XL10-gold(kan). The resulted transformants were plated on LB media with chloramphenicol and incubated at 37° C.
# In this study, the ODN expression plasmid As080103, having the sequence CYGX080103 listed above, and plasmid pssxGb without ODN insert as negative control, were transformed into E. coli XL10-goldokan). The resulting cell cultures were plated on LB media with chloramphenicol and incubated at 37° C.
molecule,measurement,setting,value
"5′(CTC ATA CTC T)3′ (DNA CTCATACTCT; chemistry not given here) [CYGXacpP, ODN targeting the bacterial essential fatty acid biosynthesis gene acpP]",cell growth inhibited,[1],86-96%
"5′-GTTTCGAAGGCTAGCTACAACGATCATCCAG-3′ (listed as DNA, chemistry not fully specified) [CYGXFtsZDZ, 31 nt 10-23 DNA enzyme targeted against the GU site at position 880 of FtsZ mRNA]",cleavage of FtsZ RNA,[2],effectively cleave the FtsZ RNA in as short a time as 0.5 hr
"KFFKFFKFFK-CTC ATA CTC T (KFFKFFKFFK peptide conjugated to PNA) [peptide-ODN conjugate, peptide-PNA conjugate]",cell growth inhibited,[3],82-99.8%
B1,growth on LB media,[4],grow normally on the media without aTc but not on media with aTc
same,growth on LB media,[5],no XL10-gold(kan) carrying ODN expression plasmid grew
